Experimental data reported in article PMC10958001, “THOUSAND-GRAIN WEIGHT 6, which is an IAA-glucose hydrolase, preferentially recognizes the structure of the indole ring” (Scientific Reports, 2024).

Experiments:
[1] = target: T1, TGW6 (THOUSAND-GRAIN WEIGHT 6), IAA-glucose hydrolase (Oryza sativa, UniProt Q69U01); assay: […] NMR fragment screening (CPMG R2 filter); type: binding; conditions: 298 K
T1 construct: gene Os06g0623700; recombinant; N-terminal Trx-(His)6 tag cleaved with thrombin; E. coli Rosetta-gami 2(DE3); purified
T1 sequence (Q69U01 31-350): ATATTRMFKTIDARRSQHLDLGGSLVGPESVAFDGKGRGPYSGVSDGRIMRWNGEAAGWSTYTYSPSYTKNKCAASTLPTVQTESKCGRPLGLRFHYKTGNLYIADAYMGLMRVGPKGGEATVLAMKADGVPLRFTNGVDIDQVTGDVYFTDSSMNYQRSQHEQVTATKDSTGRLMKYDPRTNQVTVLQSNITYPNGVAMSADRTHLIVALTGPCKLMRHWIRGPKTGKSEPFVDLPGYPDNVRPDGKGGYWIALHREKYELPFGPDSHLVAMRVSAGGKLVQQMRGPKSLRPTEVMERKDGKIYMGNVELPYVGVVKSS

[2] = target: T1, TGW6 (THOUSAND-GRAIN WEIGHT 6), IAA-glucose hydrolase; assay: thermal shift (UNCLE, intrinsic Trp fluorescence BCM); type: binding; conditions: 27.6 μM TGW6, 55.0 μM ligand, 2 mM CaCl2, pH 7.0
[3] = 10 μM TGW6, 50 μM fragment in mixture

| Tm shift [2] | Compound | other results |
| --- | --- | --- |
| > 3 °C | O=C(O)CCCc1c[nH]c2ccccc12 [IBA, indole 3-butyric acid] |  |
| > 3 °C | COC(=O)Cc1c[nH]c2ccccc12 [MeIAA, methyl indole 3-acetate] |  |
| ~ 5 °C | O=C(Cc1c[nH]c2ccccc12)O[C@@H]1O[C@H](CO)[C@@H](O)[C@H](O)[C@H]1O [IAA-Glc, 1-O-indole-3-ylacetyl-β-D-glucose] |  |
| ~ 7 °C | O=C(O)Cc1c[nH]c2cccc(F)c12 [PK0-38501, 2-(4-Fluoro-1H-indol-3-yl)acetic acid] | ΔIntensity (%) [1, 3]: − 46.5 |
| ~ 9 °C | O=C(O)Cc1c[nH]c2c(F)cccc12 [PK0-38511, 2-(7-Fluoro-1H-indol-3-yl)acetic acid] | ΔIntensity (%) ([1]; 10 μM TGW6, 50 μM fragment in mixture, competitive with IAA-Glc): − 50.3 |

More lines, now with the values behind:

| Compound | Tm shift [2] | other results |
| --- | --- | --- |
| O=C(O)C(c1c[nH]c2ccc(F)cc12)C(F)(F)F (stereo not shown) [PK0-42071, 3,3,3-Trifluoro-2-(5-fluoro-1H-indol-3-yl)propanoic acid] |  | ΔIntensity (%) ([1]; 10 μM TGW6, CF3-containing fragment at 17.5 μM in mixture): − 46.0 |
| O=[N+]([O-])c1ccc(OCC2CCCO2)c(F)c1 (stereo not shown) [CK0-00681, 2-[(2-Fluoro-4-nitrophenoxy)methyl]tetrahydrofuran] |  | ΔIntensity (%) ([1]; 10 μM TGW6, 50 μM fragment in mixture, not competitive with IAA-Glc, different site implied): − 100.0 |
| O=[N+]([O-])c1c(F)cccc1N1CCC(O)CC1 [CK0-02991, 1-(3-Fluoro-2-nitrophenyl)piperidin-4-ol] |  | ΔIntensity (%) [1, 3]: − 57.9 |
| O=[N+]([O-])c1ccc(OC2CCOCC2)c(F)c1 [CK0-03011, 4-(2-Fluoro-4-nitrophenoxy)tetrahydro-2H-pyran] |  | ΔIntensity (%) [1, 3]: − 45.4 |
| O=C(O)Cc1c[nH]c2ccccc12 [IAA, indole-3-acetic acid] | > 3 °C |  |
| C[C@H](NC(=O)Cc1c[nH]c2ccccc12)C(=O)O [IAA-Ala] | ~ 10 °C |  |
